# Experimental data taken from ChEMBL document CHEMBL1201862, “PubChem BioAssay data set” (2004).
#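 Step 1: Grow cells in 96-well plates. Step 2: Expose to compound for 48 hours at 5 concentrations. Step 3: Interpolate endpoints linearly; if unreached, use highest concentration. The concentration for 50% growth inhibition is given as GI50.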 Calls of active or inactive are those of the source. No stated cut-off is given here; in the data, active = GI50 up to about 1.1 µM and inactive = higher.
# Key:
# Test in all cases: NCI tumour cell line growth inhibition, 48 h
# UO-31 = system: UO-31
# OVCAR-4 = system: OVCAR-4
# SF-539 = system: SF-539
# UACC-257 = system: UACC-257
# LXFL 529 = system: LXFL 529
# HT-29 = system: HT-29
# SF-268 = system: SF-268
# A498 = system: A498
# DMS-273 = system: DMS-273
# HCT-15 = system: HCT-15
# SN12C = system: SN12C
# NCI-H522 = system: NCI-H522
# IGROV-1 = system: IGROV-1
# XF498 = system: XF498
# EKVX = system: EKVX
# M14 = system: M14
# ACHN = system: ACHN
# SK-MEL-5 = system: SK-MEL-5
# 786-0 = system: 786-0
# CAKI-1 = system: CAKI-1
# CCRF-CEM = system: CCRF-CEM
# RXF 631 = system: RXF 631
# NCI-H460 = system: NCI-H460
# SK-MEL-2 = system: SK-MEL-2
# COLO 205 = system: COLO 205
# RPMI-8226 = system: RPMI-8226
# OVCAR-3 = system: OVCAR-3
# MOLT-4 = system: MOLT-4
# A549 = system: A549
# UACC-62 = system: UACC-62
# K562 = system: K562
# HL-60 = system: HL-60
# SR = system: SR
# NCI-H23 = system: NCI-H23
# SNB-19 = system: SNB-19
# HOP-62 = system: HOP-62
# SK-MEL-28 = system: SK-MEL-28
# HOP-92 = system: HOP-92
# KM-20L2 = system: KM-20L2
# NCI-H226 = system: NCI-H226
# SW-620 = system: SW-620
# OVCAR-8 = system: OVCAR-8
# LOX IMVI = system: LOX IMVI
# RXF 393 = system: RXF 393
# HCT-116 = system: HCT-116
# OVCAR-5 = system: OVCAR-5
# SF-295 = system: SF-295
# U-251 = system: U-251
# KM12 = system: KM12
# TK-10 = system: TK-10
# DLD-1 = system: DLD-1
# SK-OV-3 = system: SK-OV-3
# SNB-75 = system: SNB-75
# SNB-78 = system: SNB-78
# HCC 2998 = system: HCC 2998
# M19-MEL = system: M19-MEL
# Malme-3M = system: Malme-3M
# T47D = system: T47D
# DMS-114 = system: DMS-114
# HOP-18 = system: HOP-18
# MCF7 = system: MCF7
# PC-3 = system: PC-3
# MDA-N = system: MDA-N
# Hs-578T = system: Hs-578T
# DU-145 = system: DU-145
# MDA-MB-435 = system: MDA-MB-435
# BT-549 = system: BT-549
# NCI/ADR-RES = system: NCI/ADR-RES
# MDA-MB-231 = system: MDA-MB-231
structure (smiles),measurement,setting,value
O=C1O[C@H](c2ccccc2)[C@@H]2CC3(CCN12)OCCO3,GI50,UO-31,> 100 µM (inactive)
same,GI50,OVCAR-4,> 100 µM (inactive)
same,GI50,SF-539,> 100 µM (inactive)
same,GI50,UACC-257,> 100 µM (inactive)
same,GI50,LXFL 529,> 100 µM (inactive)
same,GI50,HT-29,> 100 µM (inactive)
same,GI50,SF-268,> 100 µM (inactive)
same,GI50,A498,> 100 µM (inactive)
same,GI50,DMS-273,> 100 µM (inactive)
same,GI50,HCT-15,> 100 µM
same,GI50,SN12C,> 100 µM (inactive)
same,GI50,NCI-H522,2.2 µM (inactive)
same,GI50,IGROV-1,> 100 µM (inactive)
same,GI50,XF498,> 100 µM (inactive)
same,GI50,EKVX,> 100 µM (inactive)
same,GI50,M14,> 100 µM (inactive)
same,GI50,ACHN,> 100 µM (inactive)
same,GI50,SK-MEL-5,> 100 µM (inactive)
same,GI50,786-0,> 100 µM (inactive)
same,GI50,CAKI-1,> 100 µM (inactive)
same,GI50,CCRF-CEM,> 100 µM (inactive)
same,GI50,RXF 631,> 100 µM (inactive)
same,GI50,NCI-H460,> 100 µM (inactive)
same,GI50,SK-MEL-2,> 100 µM (inactive)
same,GI50,COLO 205,> 100 µM (inactive)
same,GI50,RPMI-8226,> 100 µM (inactive)
same,GI50,OVCAR-3,> 100 µM (inactive)
same,GI50,MOLT-4,> 100 µM (inactive)
same,GI50,A549,> 100 µM (inactive)
same,GI50,UACC-62,> 100 µM (inactive)
same,GI50,K562,> 100 µM (inactive)
same,GI50,HL-60,> 100 µM (inactive)
same,GI50,SR,> 100 µM (inactive)
same,GI50,NCI-H23,68.9 µM (inactive)
same,GI50,SNB-19,> 100 µM (inactive)
same,GI50,HOP-62,> 100 µM (inactive)
same,GI50,SK-MEL-28,> 100 µM (inactive)
same,GI50,HOP-92,69.2 µM (inactive)
same,GI50,KM-20L2,> 100 µM (inactive)
same,GI50,NCI-H226,> 100 µM (inactive)
same,GI50,SW-620,> 100 µM (inactive)
same,GI50,OVCAR-8,> 100 µM (inactive)
same,GI50,LOX IMVI,> 100 µM (inactive)
same,GI50,RXF 393,> 100 µM (inactive)
same,GI50,HCT-116,> 100 µM (inactive)
same,GI50,OVCAR-5,> 100 µM (inactive)
same,GI50,SF-295,> 100 µM (inactive)
same,GI50,U-251,> 100 µM (inactive)
same,GI50,KM12,> 100 µM (inactive)
same,GI50,TK-10,> 100 µM (inactive)
O=C1OC(c2ccccc2)=N/C1=C/NC(Cc1ccccc1)C(=O)O (stereo not drawn),GI50,UO-31,> 100 µM (inactive)
same,GI50,OVCAR-4,> 100 µM (inactive)
same,GI50,SF-539,> 100 µM (inactive)
same,GI50,UACC-257,> 100 µM (inactive)
same,GI50,LXFL 529,> 100 µM (inactive)
same,GI50,DLD-1,> 100 µM (inactive)
same,GI50,HT-29,> 100 µM (inactive)
same,GI50,SF-268,> 100 µM (inactive)
same,GI50,A498,> 100 µM (inactive)
same,GI50,DMS-273,> 100 µM (inactive)
same,GI50,SK-OV-3,> 100 µM (inactive)
same,GI50,HCT-15,> 100 µM
same,GI50,SN12C,> 100 µM (inactive)
same,GI50,NCI-H522,> 100 µM (inactive)
same,GI50,IGROV-1,> 100 µM (inactive)
same,GI50,EKVX,> 100 µM (inactive)
same,GI50,M14,> 100 µM (inactive)
same,GI50,ACHN,> 100 µM (inactive)
same,GI50,SK-MEL-5,> 100 µM (inactive)
same,GI50,786-0,> 100 µM (inactive)
same,GI50,CAKI-1,> 100 µM (inactive)
same,GI50,CCRF-CEM,> 100 µM (inactive)
same,GI50,RXF 631,> 100 µM (inactive)
same,GI50,NCI-H460,> 100 µM (inactive)
same,GI50,SK-MEL-2,> 100 µM (inactive)
same,GI50,COLO 205,> 100 µM (inactive)
same,GI50,RPMI-8226,> 100 µM (inactive)
same,GI50,SNB-75,50.8 µM (inactive)
same,GI50,OVCAR-3,> 100 µM (inactive)
same,GI50,MOLT-4,> 100 µM (inactive)
same,GI50,A549,> 100 µM (inactive)
same,GI50,UACC-62,> 100 µM (inactive)
same,GI50,K562,> 100 µM (inactive)
same,GI50,HL-60,> 100 µM (inactive)
same,GI50,SNB-78,> 100 µM (inactive)
same,GI50,SR,> 100 µM (inactive)
same,GI50,NCI-H23,> 100 µM (inactive)
same,GI50,SNB-19,> 100 µM (inactive)
same,GI50,HOP-62,> 100 µM (inactive)
same,GI50,SK-MEL-28,> 100 µM (inactive)
same,GI50,KM-20L2,> 100 µM (inactive)
same,GI50,HCC 2998,> 100 µM (inactive)
same,GI50,NCI-H226,> 100 µM (inactive)
same,GI50,SW-620,> 100 µM (inactive)
same,GI50,M19-MEL,> 100 µM (inactive)
same,GI50,Malme-3M,> 100 µM (inactive)
same,GI50,OVCAR-8,> 100 µM (inactive)
same,GI50,LOX IMVI,> 100 µM (inactive)
same,GI50,RXF 393,> 100 µM (inactive)
same,GI50,HCT-116,> 100 µM (inactive)
same,GI50,OVCAR-5,> 100 µM (inactive)
same,GI50,SF-295,> 100 µM (inactive)
same,GI50,U-251,> 100 µM (inactive)
same,GI50,KM12,> 100 µM (inactive)
same,GI50,TK-10,> 100 µM (inactive)
COc1cc2cc3c4cc(OC)c(OC)cc4cc[n+]3c(C)c2cc1OC.O=C([O-])CS(=O)(=O)O,GI50,UO-31,> 100 µM (inactive)
same,GI50,OVCAR-4,17.7 µM (inactive)
same,GI50,T47D,26.8 µM (inactive)
same,GI50,SF-539,42.7 µM (inactive)
same,GI50,UACC-257,39.7 µM (inactive)
same,GI50,LXFL 529,10.8 µM (inactive)
same,GI50,DLD-1,> 100 µM (inactive)
same,GI50,HT-29,53.3 µM (inactive)
same,GI50,DMS-114,3.34 µM (inactive)
same,GI50,SF-268,0.811 µM (active)
same,GI50,A498,22.3 µM (inactive)
same,GI50,DMS-273,63.8 µM (inactive)
same,GI50,SK-OV-3,> 100 µM (inactive)
same,GI50,HCT-15,> 100 µM
same,GI50,SN12C,3.27 µM (inactive)
same,GI50,NCI-H522,4.88 µM (inactive)
same,GI50,IGROV-1,80.9 µM (inactive)
same,GI50,XF498,36.4 µM (inactive)
same,GI50,HOP-18,> 100 µM (inactive)
same,GI50,EKVX,> 100 µM (inactive)
same,GI50,M14,> 100 µM (inactive)
same,GI50,ACHN,> 100 µM (inactive)
same,GI50,MCF7,72.8 µM (inactive)
same,GI50,SK-MEL-5,80 µM (inactive)
same,GI50,786-0,88.3 µM (inactive)
same,GI50,CAKI-1,> 100 µM (inactive)
same,GI50,CCRF-CEM,33.2 µM (inactive)
same,GI50,NCI-H460,> 100 µM (inactive)
same,GI50,SK-MEL-2,> 100 µM (inactive)
same,GI50,COLO 205,57 µM (inactive)
same,GI50,RPMI-8226,68.4 µM (inactive)
same,GI50,SNB-75,12.3 µM (inactive)
same,GI50,PC-3,74.5 µM (inactive)
same,GI50,OVCAR-3,78.9 µM (inactive)
same,GI50,MOLT-4,> 100 µM (inactive)
same,GI50,A549,> 100 µM (inactive)
same,GI50,UACC-62,65.9 µM (inactive)
same,GI50,K562,61.1 µM (inactive)
same,GI50,HL-60,24.2 µM (inactive)
same,GI50,SNB-78,48.4 µM (inactive)
same,GI50,SR,> 100 µM (inactive)
same,GI50,NCI-H23,7.87 µM (inactive)
same,GI50,SNB-19,17.7 µM (inactive)
same,GI50,MDA-N,49.4 µM (inactive)
same,GI50,HOP-62,42.8 µM (inactive)
same,GI50,SK-MEL-28,73.3 µM (inactive)
same,GI50,HOP-92,> 100 µM (inactive)
same,GI50,Hs-578T,20.7 µM (inactive)
same,GI50,DU-145,28.4 µM (inactive)
same,GI50,KM-20L2,> 100 µM (inactive)
same,GI50,HCC 2998,> 100 µM (inactive)
same,GI50,NCI-H226,10.8 µM (inactive)
same,GI50,SW-620,72.8 µM (inactive)
same,GI50,MDA-MB-435,42.3 µM (inactive)
same,GI50,M19-MEL,69 µM (inactive)
same,GI50,Malme-3M,> 100 µM (inactive)
same,GI50,OVCAR-8,24.3 µM (inactive)
same,GI50,LOX IMVI,> 100 µM (inactive)
same,GI50,RXF 393,> 100 µM (inactive)
same,GI50,BT-549,33.5 µM (inactive)
same,GI50,HCT-116,> 100 µM (inactive)
same,GI50,OVCAR-5,> 100 µM (inactive)
same,GI50,SF-295,> 100 µM (inactive)
same,GI50,U-251,8.69 µM (inactive)
same,GI50,KM12,> 100 µM (inactive)
same,GI50,NCI/ADR-RES,> 100 µM (inactive)
same,GI50,MDA-MB-231,70.5 µM (inactive)
same,GI50,TK-10,> 100 µM (inactive)
